The term ED50 denotes the dose at which the effect has come halfway, by size or by number of responders. Broadly, the LD50 is the dose at which mortality reaches 50%. Higher therefore signals a less toxic substance.

≈ marks a conversion by molar mass, not a printed value. Where two headings read alike, the source gives them in different places. Bounds are passed on as bounds.

The source of these data is patent US4220755A, “Fortimicin B derivatives and process for production thereof” (Abbott Laboratories, priority 1976, dated 1980).

For series [1], the system named is Staphylococcus a ureus 226. The series can be described thus: MIC, agar dilution method, pH 7.2. Format: cell-based, Staphylococcus aureus. Here is the method:
(§1) Measurement was carried out according to the agar dilution method, using a medium of pH 8.0, or the Japanese Antibiotic Medicament Standard, using a medium of pH 7.2 Units are in mcg/ml.
Background: In agar dilution the substance is mixed into plates at graded concentrations.

In series [2] the test system is Escherichia coli R17 Z343. The series can be described thus: MIC, agar dilution method, pH 7.2. The class given is cell-based. Here is the method:
as §1
(§2) 3: kanamycin, producing acetyltransferase.

In the next series the test system is Serratia marcescens 1065. The series can be described thus: MIC, agar dilution method, pH 7.2. Format: cell-based. Here is the method:
as §1, §2

Series [3] deals with Pseudomonas aeruginosa R9 KY8516. The series is described as follows: MIC, agar dilution method, pH 7.2. Format: cell-based. As to the method: as §1, §2
The nature of series [4]: Stability in alkaline aqueous conditions. To be noted: for Stability in aqueous solution: free base. Format: physicochemical. As to the method:
The stability of 4-N-acylfortimicin B derivatives in aqueous alkaline conditions is poor. […] Therefore, purification of these compounds under basic conditions (for example, column chromatography with Amberlite CG-50, eluting with aqueous ammonia) is not practical.
In contrast with the instability of 4-N-acylfortimicin B derivatives, 4-N-alkylfortimicin B derivatives are so stable that no decomposition occurs even in aqueous barium hydroxide solution at reflux temperature for 18 hours. Therefore, in the case of 4-N-alkylfortimicin B, any substituents can be introduced at 4-N-position of fortimicin B, even though such substituents can not be introduced as the acyl type to such position due to the aforementioned instability.

A further series has as its system various microorganisms. The series is described as follows: Antibacterial activity (general statements). Format: cell-based. To be noted: qualitative statement. Here is the method: as §1
The next series deals with Escherichia coli Juhl. The series is described as follows: ED50 in infected mice. The class given is in vivo, ddY-strain mice. To be noted: ip, 168 h, read-out: ED50 EC. As to the method:
(§3) In this experiment, one group consisting of five ddY-strain mice is used. The microorganisms shown below are inoculated into each animal. One hour after the inoculation, test compounds dissolved in distilled water for injection are injected intraperitoneally to test animals by one shot. The test animals are observed one week after the injection, and the ED50 is calculated according to the method of Behrens-Karber.
*^2 EC means Escherichia coli Juhl. 2.1 × 10^4 cells are
inoculated into each mouse.

The nature of the next series: in vivo. To be noted: mouse, iv. Here is the method: In this experiment, one group consisting of five ddY-strain mice is used. Test compounds dissolved in 0.2 ml of distilled water for injection are injected intravenously into each animal in 10 seconds. The LD50 is calculated according to the method of Behrens-Karber.
The test system of series [5] is Klebsiella pneumoniae 8045. The series is described as follows: ED50 in infected mice. Format: in vivo, ddY-strain mice. The note with it: 168 h, read-out: ED50 KP. Here is the method: as §3
*^1 KP means Klebsiella pneumoniae 8045. 1.3 × 10^5 cells
are inoculated into each mouse.

Where [6] appears, read: R17Z343, pH 7.2, read-out: Minimum inhibition concentration (MIC).
The mark [7] stands for this setting: Serratia marcescens, 1065, pH 7.2, read-out: Minimum inhibition concentration (MIC).
The mark [8] stands for this setting: pH 7.2, Staphylococcus aureus 226, read-out: Minimum inhibition concentration (MIC).
The mark [9] stands for this setting: R9KY8516, pH 7.2, P. aeruginosa R9 KY8516, 3**: kanamycin, producing acetyltransferase, read-out: Minimum inhibition concentration (MIC).

Consider `CO[C@H]1[C@@H](O)[C@H](N)[C@@H](O[C@H]2O[C@H]([C@H](C)N)CC[C@H]2N)[C@H](O)[C@@H]1N(C)C(=O)CN` [Compound 2, 4-N-glycylfortimicin B, reference compound], for which the MIC worked out at 0.78 µg/mL (≈ 1.92 µM) in [1] (pH 7.2, read-out: Minimum inhibition concentration (MIC)); 1.56 µg/mL (≈ 3.85 µM) in series [2] (setting [6]); 6.25 µg/mL (≈ 15.4 µM) in the series on Serratia marcescens 1065 (setting [7]); 50 µg/mL (≈ 123 µM) in series [3] (R9KY8516, pH 7.2, read-out: Minimum inhibition concentration (MIC)). The “Stability in aqueous solution” value in series [4] (pH 10, 100° C., 4 hours) was “almost completely decomposed”; in series [4] (pH 10, room temperature, 2 weeks), “almost completely decomposed”. For the same compound, in series [4], the “Stability under strongly alkaline conditions” value is given as “slightly unstable”. Moreover, the Antibacterial activity result with various microorganisms is on record as “have antibacterial activity”. Also, the ED50 in the series on Escherichia coli Juhl (Escherichia coli) is 5.06 mg/kg; in series [5] (Klebsiella pneumoniae, 8045, ip), 2.06 mg/kg. For the same compound, the median lethal dose (LD50) in “in vivo” is 330 mg/kg.
With `CO[C@H]1[C@@H](O)[C@H](N)[C@@H](O[C@H]2O[C@H]([C@H](C)N)CC[C@H]2N)[C@H](O)[C@@H]1N(C)C(=O)CNC(N)=O` [Compound 3, 4-N-hydantoylfortimicin B, reference compound], the MIC is 6.25 µg/mL (≈ 13.9 µM) in series [1] (setting [8]); 3.12 µg/mL (≈ 6.96 µM) in [2] (R17Z343, pH 7.2, E. coli R17 Z343, 3**: kanamycin, producing acetyltransferase, read-out: Minimum inhibition concentration (MIC)); 50 µg/mL (≈ 111 µM) in the series with Serratia marcescens 1065 (pH 7.2, Serratia marcescens 1065, 3**: kanamycin, producing acetyltransferase, read-out: Minimum inhibition concentration (MIC)); greater than 100 µg/mL in series [3] (setting [9]). Besides, the “Stability under strongly alkaline conditions” value in [4] is “slightly unstable”. Also, the Antibacterial activity result with various microorganisms is listed as “have antibacterial activity”.
Consider `CO[C@H]1[C@@H](O)[C@H](N)[C@@H](O[C@H]2O[C@H]([C@H](C)N)CC[C@H]2N)[C@H](O)[C@@H]1N(C)C[C@@H](O)CCN` [Compound 27, 4-N-[(S)-4-amino-2-hydroxybutyl]fortimicin B], for which the MIC amounted to 0.4 µg/mL (≈ 0.918 µM) in [1] (setting [8]), 3.12 µg/mL (≈ 7.16 µM) in series [2] (setting [6]), 6.25 µg/mL (≈ 14.3 µM) in the series on Serratia marcescens 1065 (setting [7]) and 25 µg/mL (≈ 57.4 µM) in [3] (setting [9]). The ED50 in the series on Escherichia coli Juhl (mice, intraperitoneal one shot 1 hour after inoculation of Escherichia coli Juhl (2.1 × 10^4 cells), sulfate, one week observation) was 2.81 mg/kg; in series [5] (ip, mice, intraperitoneal one shot 1 hour after inoculation of Klebsiella pneumoniae 8045 (1.3 × 10^5 cells), sulfate, one week observation), 1.88 mg/kg. Besides, the LD50 in the series “in vivo” amounted to 135 mg/kg.
